How the values were obtained:
[1] = target: T1, epithelial sodium channels (ENaC), airway epithelial monolayers (Canis lupus familiaris, UniProt A0A8I3MKE6+A0A8I3Q679+Q95165); assay: Sodium channel blocking activity: lumenal drug inhibition of airway epithelial sodium currents (short circuit current, ISC) in Ussing chambers; type: cell-based, canine; conditions: for Fold Amiloride** (PSA 4022 = 100): relative potency for PSA 4022 = 100 using EC50 from PSA 4022 in same run
T1 sequence (A0A8I3Q679 1-649): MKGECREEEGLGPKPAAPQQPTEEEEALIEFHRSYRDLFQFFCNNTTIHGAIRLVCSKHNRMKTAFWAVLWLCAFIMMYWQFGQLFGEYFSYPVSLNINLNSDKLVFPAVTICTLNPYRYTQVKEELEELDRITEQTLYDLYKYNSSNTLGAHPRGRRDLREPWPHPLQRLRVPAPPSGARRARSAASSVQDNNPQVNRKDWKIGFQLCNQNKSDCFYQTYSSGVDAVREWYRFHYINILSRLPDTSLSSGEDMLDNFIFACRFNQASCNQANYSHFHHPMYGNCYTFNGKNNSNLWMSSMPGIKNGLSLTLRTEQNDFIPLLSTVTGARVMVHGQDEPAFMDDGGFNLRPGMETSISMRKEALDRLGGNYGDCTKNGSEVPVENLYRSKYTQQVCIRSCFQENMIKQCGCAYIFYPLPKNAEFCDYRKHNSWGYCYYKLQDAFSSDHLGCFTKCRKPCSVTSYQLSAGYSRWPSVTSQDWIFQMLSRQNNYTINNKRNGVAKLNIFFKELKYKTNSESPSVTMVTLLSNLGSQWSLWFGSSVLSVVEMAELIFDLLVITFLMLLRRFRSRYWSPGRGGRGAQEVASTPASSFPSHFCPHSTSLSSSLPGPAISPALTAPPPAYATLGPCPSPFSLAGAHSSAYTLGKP
T1 sequence (Q95165 1-641): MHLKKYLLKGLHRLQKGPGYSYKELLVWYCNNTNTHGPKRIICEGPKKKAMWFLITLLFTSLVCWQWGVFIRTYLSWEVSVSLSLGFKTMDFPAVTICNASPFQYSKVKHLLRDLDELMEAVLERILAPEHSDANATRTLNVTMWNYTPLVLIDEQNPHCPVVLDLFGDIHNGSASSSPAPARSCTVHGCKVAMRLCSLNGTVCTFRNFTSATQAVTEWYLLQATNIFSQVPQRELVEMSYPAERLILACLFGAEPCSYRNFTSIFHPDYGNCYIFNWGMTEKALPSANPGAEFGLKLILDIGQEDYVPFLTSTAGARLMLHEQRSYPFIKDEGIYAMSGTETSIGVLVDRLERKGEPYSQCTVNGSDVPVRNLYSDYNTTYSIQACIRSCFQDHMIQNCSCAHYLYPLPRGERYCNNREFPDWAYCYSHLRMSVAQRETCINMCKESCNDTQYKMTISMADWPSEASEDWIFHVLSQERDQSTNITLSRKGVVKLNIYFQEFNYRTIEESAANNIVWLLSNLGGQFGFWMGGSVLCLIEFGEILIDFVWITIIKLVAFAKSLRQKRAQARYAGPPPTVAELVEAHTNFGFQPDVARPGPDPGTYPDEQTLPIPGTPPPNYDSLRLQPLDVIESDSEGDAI
T1 sequence (A0A8I3MKE6 1-646): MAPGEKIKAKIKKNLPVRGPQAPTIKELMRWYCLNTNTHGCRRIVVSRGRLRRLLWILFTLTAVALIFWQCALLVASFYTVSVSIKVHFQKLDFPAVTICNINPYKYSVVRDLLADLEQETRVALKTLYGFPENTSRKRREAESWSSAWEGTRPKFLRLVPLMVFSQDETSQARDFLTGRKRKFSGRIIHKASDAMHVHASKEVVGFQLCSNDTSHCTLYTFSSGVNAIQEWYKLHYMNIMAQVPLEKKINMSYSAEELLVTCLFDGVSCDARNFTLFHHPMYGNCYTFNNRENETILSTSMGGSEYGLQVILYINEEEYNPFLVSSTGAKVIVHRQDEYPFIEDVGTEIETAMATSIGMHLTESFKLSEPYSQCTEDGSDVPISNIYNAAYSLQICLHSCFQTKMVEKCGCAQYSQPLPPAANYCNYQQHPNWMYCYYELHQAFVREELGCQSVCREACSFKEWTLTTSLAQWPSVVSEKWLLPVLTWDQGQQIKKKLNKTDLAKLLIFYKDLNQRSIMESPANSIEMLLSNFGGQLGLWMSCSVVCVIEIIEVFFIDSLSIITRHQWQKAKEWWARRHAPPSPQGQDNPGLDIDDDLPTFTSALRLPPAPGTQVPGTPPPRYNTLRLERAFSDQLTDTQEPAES
Method: One assay used to assess mechanism of action and/or potency of the compounds of the present invention involves the determination of lumenal drug inhibition of airway epithelial sodium currents measured under short circuit current (ISC) using airway epithelial monolayers mounted in Ussing chambers. Cells obtained from freshly excised human, dog, sheep or rodent airways are seeded onto porous 0.4 micron Snapwell™ Inserts (CoStar), cultured at air-liquid interface (ALI) conditions in hormonally defined media, and assayed for sodium transport activity (ISC) while bathed in Krebs Bicarbonate Ringer (KBR) in Using chambers. All test drug additions are to the lumenal bath with half-log dose addition protocols (from 1×10^−11 M to 3×10^−5 M), and the cumulative change in ISC (inhibition) recorded. All drugs are prepared in dimethyl sulfoxide as stock solutions at a concentration of 1×10^−2 M and stored at −20° C. Eight preparations are typically run in parallel; two preparations per run incorporate amiloride and/or benzamil as positive controls. After the maximal concentration (5×10^−5 M) is administered, the lumenal bath is exchanged three times with fresh drug-free KBR solution, and the resultant ISC measured after each wash for approximately 5 minutes in duration. Reversibility is defined as the percent return to the baseline value for sodium current after the third wash. All data from the voltage clamps are collected via a computer interface and analyzed off-line.
Dose-effect relationships for all compounds are considered and analyzed by the Prism 3.0 program. IC50 values, maximal effective concentrations, and reversibility are calculated and compared to amiloride and benzamil as positive controls.
Treatment Protocol (Assessment of Activity at t-4 hours): The following variation of the standard protocol was used to assess the durability of response following a single exposure to vehicle control (distilled water), positive control compounds (amiloride or benzamil), or investigational agents. At time zero, vehicle control (distilled water), positive control (amiloride), or investigational compounds were aerosolized from a 4 ml volume using a Pari LC JetPlus nebulizer to free-breathing animals. The nebulizer was driven by compressed air with a flow of 8 liters per minute. The time to deliver the solution was 10 to 12 minutes. Animals were restrained in an upright position in a specialized body harness for 4 hours. At the end of the 4-hour period animals received a single dose of aerosolized ^99mTc-Human serum albumin (3.1 mg/ml; containing approximately 20 mCi) from a Raindrop Nebulizer. Animals were extubated immediately following delivery of the total dose of radio-tracer. A baseline deposition image was obtained immediately after radio-aerosol administration. Serial images of the lung were obtained at 15-minute intervals during the first 2 hours after administration of the radio-tracer (representing hours 4 through 6 after drug administration) and hourly for the next 2 hours after dosing for a total observation period of 4 hours. A washout period of at least 7 days separated dosing sessions with different experimental agents. Statistics: Data were analyzed using SYSTAT for Windows, version 5. Data were analyzed using a two-way repeated ANOVA (to assess overall effects), followed by a paried t-test to identify differences between specific pairs. Significance was accepted when P was less than or equal to 0.05. […] The compounds can be further tested for potency in canine bronchial epithelia using the in vitro assay described above. The results for the compounds of the present invention are reported as fold-enhancement values relative to amiloride.
Sodium Channel Blocking Activity of Selected Alaphatic Pyrazinoylguanidines.

| melting point [°C] | SMILES | Fold Amiloride** (PSA 4022 = 100) [1] | EC50 ([1]; sodium channel blocking activity, short circuit current in airway epithelial monolayers) [nM] |
| --- | --- | --- | --- |
|  | N=C(NCCCCCCCN)NC(=O)c1nc(Cl)c(N)nc1N [compound 18705] | 8 ± 2 (n = 4) |  |
|  | CC(C)(C)OC(=O)NCCCCCCCCNC(=N)NC(=O)c1nc(Cl)c(N)nc1N [compound 19156] | 18 ± 2 (n = 2) |  |
|  | N=C(N)NCCCCCCCNC(=N)NC(=O)c1nc(Cl)c(N)nc1N [compound 19155] | 8 ± 7 (n = 3) |  |
|  | N=C(NCCCCCCCCCCCCN)NC(=O)c1nc(Cl)c(N)nc1N [compound 23609] | 66 ± 36 (n = 4) |  |
|  | CC(C)(C)OC(=O)NCCCOCCCNC(=N)NC(=O)c1nc(Cl)c(N)nc1N [compound 19333] | 7 ± 2 (n = 4) |  |
| 89 to 93 | CC(C)(C)OC(=O)N=C(NCCCOCCCNC(=N)NC(=O)c1nc(Cl)c(N)nc1N)NC(=O)OC(C)(C)C |  |  |
|  | N=C(N)NCCCCCCCCNC(=N)NC(=O)c1nc(Cl)c(N)nc1N [compound 19604] | 63 ± 61 (n = 4) |  |
|  | N=C(NCCCCCCCCN)NC(=O)c1nc(Cl)c(N)nc1N [compound 19336] | 12 ± 3 (n = 3) |  |
|  | CC(C)(C)OC(=O)NCCCCCCCCCCCCNC(=N)NC(=O)c1nc(Cl)c(N)nc1N [compound 23776] | 7 (n = 1) |  |
|  | N=C(NCCCCCCCCCCCN)NC(=O)c1nc(Cl)c(N)nc1N [compound 23682] | 51 ± 15 (n = 3) |  |
|  | CC(C)(C)OC(=O)NCCCCCCCCCNC(=N)NC(=O)c1nc(Cl)c(N)nc1N [compound 19484] | 12 (n = 1) |  |
|  | N=C(N)NCCCCCCCCCCCNC(=N)NC(=O)c1nc(Cl)c(N)nc1N [compound 23991] | 20 ± 12 (n = 4) |  |
|  | N=C(N)NCCCCCCCCCCCCNC(=N)NC(=O)c1nc(Cl)c(N)nc1N [compound 23683] | 68 ± 48 (n = 6) |  |
|  | N=C(N)NCCCCCCCCCNC(=N)NC(=O)c1nc(Cl)c(N)nc1N [compound 19006] | 11 ± 2 (n = 3) |  |
|  | N=C(N)NCCCCCCCCCCNC(=N)NC(=O)c1nc(Cl)c(N)nc1N [compound 23608] | 41 ± 29 (n = 2) |  |
|  | N=C(NCCCCCCCCCCN)NC(=O)c1nc(Cl)c(N)nc1N [compound 19487] | 37 ± 1 (n = 4) |  |
|  | N=C(NCCCCCCN)NC(=O)c1nc(Cl)c(N)nc1N [compound 18706] | 4 ± 1 (n = 4) |  |
|  | N=C(NCCCCCCCCCN)NC(=O)c1nc(Cl)c(N)nc1N [compound 19335] | 19 ± 7 (n = 4) | 36 ± 7 |
